Results published in the CheMixHub ionic liquid set.
± gives the uncertainty stated by the source.

Assay: xn = mol fraction of the nth substance listed

CC(=O)[O-].Cn1cc[n+](CCO)c1 + O
viscosity (293.15 K, 100 kPa, x1 = 0.9003): 93.9 ± 4.3 mPa·s | viscosity (298.15 K, 100 kPa, x1 = 0.8317): 41.2 ± 1.7 mPa·s | viscosity (298.15 K, 100 kPa, x1 = 0.8712): 56.8 ± 2.4 mPa·s | viscosity (303.15 K, 100 kPa, x1 = 0.8317): 32 ± 1.4 mPa·s | viscosity (303.15 K, 100 kPa, x1 = 0.8712): 43.6 ± 1.8 mPa·s | viscosity (308.15 K, 100 kPa, x1 = 0.8317): 25.4 ± 1.1 mPa·s | viscosity (308.15 K, 100 kPa, x1 = 0.8818): 36.7 ± 1.5 mPa·s | viscosity (313.15 K, 100 kPa, x1 = 0.8632): 25.8 ± 1.1 mPa·s | viscosity (313.15 K, 100 kPa, x1 = 0.8712): 26.6 ± 1.1 mPa·s | viscosity (313.15 K, 100 kPa, x1 = 0.8818): 29 ± 1.2 mPa·s | viscosity (323.15 K, 100 kPa, x1 = 0.8818): 19.3 ± 0.81 mPa·s | viscosity (328.15 K, 100 kPa, x1 = 0.8712): 14.72 ± 0.62 mPa·s | viscosity (333.15 K, 100 kPa, x1 = 0.8818): 13.46 ± 0.57 mPa·s | viscosity (333.15 K, 100 kPa, x1 = 0.9003): 14.78 ± 0.62 mPa·s

CCCCCCCCCn1cc[n+](C)c1.O=S(=O)([N-]S(=O)(=O)C(F)(F)F)C(F)(F)F + O
viscosity (298.15 K, 100 kPa, x2 = 0.1736): 72.66 ± 0.69 mPa·s | viscosity (308.15 K, 100 kPa, x2 = 0.1736): 46.59 ± 0.41 mPa·s | viscosity (318.15 K, 100 kPa, x2 = 0.1736): 31.72 ± 0.28 mPa·s | viscosity (323.15 K, 100 kPa, x2 = 0.1736): 26.65 ± 0.23 mPa·s | viscosity (358.15 K, 100 kPa, x2 = 0.1736): 10.15 ± 0.09 mPa·s | viscosity (363.15 K, 100 kPa, x2 = 0.1736): 9.09 ± 0.08 mPa·s

CCCCCC[n+]1ccn(C)c1.O=S(=O)([N-]S(=O)(=O)C(F)(F)C(F)(F)F)C(F)(F)C(F)(F)F + O
viscosity (293.15 K, 101 kPa, x2 = 0.187): 122 ± 17 mPa·s | electrical conductivity (295.15 K, 101 kPa, x2 = 0.187): 0.15 ± 0.02 S/m

CCCCCC[n+]1ccn(C)c1.[Cl-] + O
viscosity (278.15 K, 100 kPa, x1 = 8.613e-05): 1.531 ± 0.011 mPa·s | viscosity (278.15 K, 100 kPa, x1 = 0.0001839): 1.539 ± 0.011 mPa·s | viscosity (278.15 K, 100 kPa, x1 = 0.0003576): 1.551 ± 0.012 mPa·s | viscosity (278.15 K, 100 kPa, x1 = 0.0005405): 1.562 ± 0.012 mPa·s | viscosity (278.15 K, 100 kPa, x1 = 0.000744): 1.573 ± 0.012 mPa·s | viscosity (278.15 K, 100 kPa, x1 = 0.0009399): 1.585 ± 0.012 mPa·s | viscosity (278.15 K, 100 kPa, x1 = 0.001103): 1.596 ± 0.012 mPa·s | viscosity (278.15 K, 100 kPa, x1 = 0.001379): 1.613 ± 0.012 mPa·s | viscosity (278.15 K, 100 kPa, x1 = 0.001677): 1.641 ± 0.012 mPa·s | viscosity (283.15 K, 100 kPa, x1 = 8.613e-05): 1.314 ± 0.01 mPa·s | viscosity (283.15 K, 100 kPa, x1 = 0.0001839): 1.32 ± 0.01 mPa·s | viscosity (283.15 K, 100 kPa, x1 = 0.0003576): 1.329 ± 0.01 mPa·s | viscosity (283.15 K, 100 kPa, x1 = 0.0005405): 1.337 ± 0.01 mPa·s | viscosity (283.15 K, 100 kPa, x1 = 0.000744): 1.348 ± 0.01 mPa·s | viscosity (283.15 K, 100 kPa, x1 = 0.0009399): 1.358 ± 0.01 mPa·s | viscosity (283.15 K, 100 kPa, x1 = 0.001103): 1.369 ± 0.01 mPa·s | viscosity (283.15 K, 100 kPa, x1 = 0.001379): 1.381 ± 0.01 mPa·s | viscosity (283.15 K, 100 kPa, x1 = 0.001677): 1.401 ± 0.011 mPa·s | viscosity (288.15 K, 100 kPa, x1 = 8.613e-05): 1.145 ± 0.009 mPa·s | viscosity (288.15 K, 100 kPa, x1 = 0.0001839): 1.15 ± 0.009 mPa·s | viscosity (288.15 K, 100 kPa, x1 = 0.0003576): 1.158 ± 0.009 mPa·s | viscosity (288.15 K, 100 kPa, x1 = 0.0005405): 1.166 ± 0.009 mPa·s | viscosity (288.15 K, 100 kPa, x1 = 0.000744): 1.174 ± 0.009 mPa·s | viscosity (288.15 K, 100 kPa, x1 = 0.0009399): 1.181 ± 0.009 mPa·s | viscosity (288.15 K, 100 kPa, x1 = 0.001103): 1.188 ± 0.009 mPa·s | viscosity (288.15 K, 100 kPa, x1 = 0.001379): 1.2 ± 0.009 mPa·s | viscosity (288.15 K, 100 kPa, x1 = 0.001677): 1.219 ± 0.009 mPa·s | viscosity (293.15 K, 100 kPa, x1 = 8.613e-05): 1.008 ± 0.008 mPa·s | viscosity (293.15 K, 100 kPa, x1 = 0.0001839): 1.013 ± 0.008 mPa·s | viscosity (293.15 K, 100 kPa, x1 = 0.0003576): 1.019 ± 0.008 mPa·s | viscosity (293.15 K, 100 kPa, x1 = 0.0005405): 1.025 ± 0.008 mPa·s | viscosity (293.15 K, 100 kPa, x1 = 0.000744): 1.033 ± 0.008 mPa·s | viscosity (293.15 K, 100 kPa, x1 = 0.0009399): 1.039 ± 0.008 mPa·s | viscosity (293.15 K, 100 kPa, x1 = 0.001103): 1.044 ± 0.008 mPa·s | viscosity (293.15 K, 100 kPa, x1 = 0.001379): 1.054 ± 0.008 mPa·s | viscosity (293.15 K, 100 kPa, x1 = 0.001677): 1.069 ± 0.008 mPa·s | viscosity (298.15 K, 100 kPa, x1 = 0.0001839): 0.899 ± 0.007 mPa·s | viscosity (298.15 K, 100 kPa, x1 = 0.0003576): 0.905 ± 0.007 mPa·s | viscosity (298.15 K, 100 kPa, x1 = 0.0005405): 0.911 ± 0.007 mPa·s | viscosity (298.15 K, 100 kPa, x1 = 0.000744): 0.917 ± 0.007 mPa·s | viscosity (298.15 K, 100 kPa, x1 = 0.0009399): 0.922 ± 0.007 mPa·s | viscosity (298.15 K, 100 kPa, x1 = 0.001103): 0.928 ± 0.007 mPa·s | viscosity (298.15 K, 100 kPa, x1 = 0.001379): 0.936 ± 0.007 mPa·s | viscosity (298.15 K, 100 kPa, x1 = 0.001677): 0.949 ± 0.007 mPa·s | electrical conductivity (298.15 K, 101.3 kPa, x1 = 4.23e-06): 0.00276 ± 3e-05 S/m | electrical conductivity (298.15 K, 101.3 kPa, x1 = 7.11e-06): 0.00451 ± 5e-05 S/m | electrical conductivity (298.15 K, 101.3 kPa, x1 = 1.01e-05): 0.00631 ± 6e-05 S/m | electrical conductivity (298.15 K, 101.3 kPa, x1 = 1.293e-05): 0.008 ± 8e-05 S/m | electrical conductivity (298.15 K, 101.3 kPa, x1 = 1.551e-05): 0.00953 ± 0.0001 S/m | electrical conductivity (298.15 K, 101.3 kPa, x1 = 1.836e-05): 0.01121 ± 0.00011 S/m | electrical conductivity (298.15 K, 101.3 kPa, x1 = 2.116e-05): 0.0129 ± 0.00013 S/m | electrical conductivity (298.15 K, 101.3 kPa, x1 = 2.393e-05): 0.0145 ± 0.00015 S/m | electrical conductivity (298.15 K, 101.3 kPa, x1 = 2.652e-05): 0.016 ± 0.00016 S/m | electrical conductivity (298.15 K, 101.3 kPa, x1 = 2.919e-05): 0.0175 ± 0.00018 S/m | viscosity (303.15 K, 100 kPa, x1 = 8.613e-05): 0.802 ± 0.006 mPa·s | viscosity (303.15 K, 100 kPa, x1 = 0.0001839): 0.805 ± 0.006 mPa·s | viscosity (303.15 K, 100 kPa, x1 = 0.0003576): 0.81 ± 0.006 mPa·s | viscosity (303.15 K, 100 kPa, x1 = 0.0005405): 0.815 ± 0.006 mPa·s | viscosity (303.15 K, 100 kPa, x1 = 0.000744): 0.82 ± 0.006 mPa·s | viscosity (303.15 K, 100 kPa, x1 = 0.0009399): 0.825 ± 0.006 mPa·s | viscosity (303.15 K, 100 kPa, x1 = 0.001103): 0.829 ± 0.006 mPa·s | viscosity (303.15 K, 100 kPa, x1 = 0.001379): 0.836 ± 0.006 mPa·s | viscosity (303.15 K, 100 kPa, x1 = 0.001677): 0.847 ± 0.007 mPa·s | viscosity (308.15 K, 100 kPa, x1 = 8.613e-05): 0.723 ± 0.006 mPa·s | viscosity (308.15 K, 100 kPa, x1 = 0.0001839): 0.726 ± 0.006 mPa·s | viscosity (308.15 K, 100 kPa, x1 = 0.0003576): 0.73 ± 0.006 mPa·s | viscosity (308.15 K, 100 kPa, x1 = 0.0005405): 0.734 ± 0.006 mPa·s | viscosity (308.15 K, 100 kPa, x1 = 0.000744): 0.739 ± 0.006 mPa·s | viscosity (308.15 K, 100 kPa, x1 = 0.0009399): 0.743 ± 0.006 mPa·s | viscosity (308.15 K, 100 kPa, x1 = 0.001103): 0.747 ± 0.006 mPa·s | viscosity (308.15 K, 100 kPa, x1 = 0.001379): 0.753 ± 0.006 mPa·s | viscosity (308.15 K, 100 kPa, x1 = 0.001677): 0.762 ± 0.006 mPa·s | viscosity (313.15 K, 100 kPa, x1 = 8.613e-05): 0.656 ± 0.005 mPa·s | viscosity (313.15 K, 100 kPa, x1 = 0.0001839): 0.659 ± 0.005 mPa·s | viscosity (313.15 K, 100 kPa, x1 = 0.0003576): 0.662 ± 0.005 mPa·s | viscosity (313.15 K, 100 kPa, x1 = 0.0005405): 0.666 ± 0.005 mPa·s | viscosity (313.15 K, 100 kPa, x1 = 0.000744): 0.67 ± 0.005 mPa·s | viscosity (313.15 K, 100 kPa, x1 = 0.0009399): 0.673 ± 0.005 mPa·s | viscosity (313.15 K, 100 kPa, x1 = 0.001103): 0.677 ± 0.005 mPa·s | viscosity (313.15 K, 100 kPa, x1 = 0.001379): 0.683 ± 0.005 mPa·s | viscosity (313.15 K, 100 kPa, x1 = 0.001677): 0.691 ± 0.005 mPa·s
